Data reported in patent US20260347319A1, “YAP/TAZ-TEAD ONCOPROTEINS INHIBITORS” (BridGene Biosciences, Inc., priority 2022, published 2026).

Legend:
Assay type in all cases: cell-based
NCI-H226 cells = assay: Cell proliferation and viability assay (CPA) in NCI-H226 cells; settings: up to 6 d; for IC50: Homo sapiens, 144 h, read-out: CPA NCI-H226 IC50 Ave
Description: Compound potency and efficacy in inhibiting cell proliferation and viability was assessed in multiple cell lines. For example, NCI-H226 cells (ATCC #CRL-5826) were seeded at 2000 cells in 200 μL medium per well of a 96-well plate (Corning #3610) and incubated at 37° C. for 24 hours, then treated with serial diluted compounds for up to 6 d. Viable cells were measured by CellTiter-Glo 2.0 Cell Viability Assay (Promega #G9243), and the luminescence signal was read using an EnSight Multimode plate reader (PerkinElmer, model 9MLDHH34000000, integration time 100 ms) with Kaleido 3.0. software. For data analysis, dose-dependent curves were plotted as “inhibition” (% of DMSO-treated control wells), and were fitted by four-parametric model in GraphPad Prism to obtain IC50 values. […]

TEAD1 = assay: MCF-7 TEAD1-luciferase reporter assay (MCF7-TEAD-Luc); settings: MCF7 cells, overnight; for IC50: Homo sapiens; for TEAD1-Luc MCF7: Max Inhibition: % of DMSO-treated control
Method in brief: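 MCF7 cells with a TEAD luciferase reporter were seeded at 10,000 per well, grown 24 hours at 37° C, then treated overnight with serially diluted compound. Luciferase signal was normalized as % inhibition relative to DMSO controls, and IC50 came from a four-parameter fit.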

H2052 cells = assay: Cell proliferation and viability assay (CPA) in H2052 cells; settings: for IC50: Homo sapiens, NCI-H2052, read-out: CPA H2052 IC50 Ave
Description: Compound potency and efficacy in inhibiting cell proliferation and viability was assessed in multiple cell lines. For example, NCI-H226 cells (ATCC #CRL-5826) were seeded at 2000 cells in 200 μL medium per well of a 96-well plate (Corning #3610) and incubated at 37° C. for 24 hours, then treated with serial diluted compounds for up to 6 d. Viable cells were measured by CellTiter-Glo 2.0 Cell Viability Assay (Promega #G9243), and the luminescence signal was read using an EnSight Multimode plate reader (PerkinElmer, model 9MLDHH34000000, integration time 100 ms) with Kaleido 3.0. software. For data analysis, dose-dependent curves were plotted as “inhibition” (% of DMSO-treated control wells), and were fitted by four-parametric model in GraphPad Prism to obtain IC50 values.
Alternatively, cells were plated at 2000 cells in 200 μL medium per well of a 96-well plate (Corning #3585) overnight, treated with compound for 7 days, cell density images taken by Incycte S3 live cell analysis instrument (Sartorius) every 24 hours at the same time. Images were analyzed by Incucyte's AI-driven software to get C “% confluence” for every image. Dose-dependent curves were plotted as “% inhibition” (% o of DMSO-treated control wells) and were fitted by four-parametric model in GraphPad Prism to obtain IC50 values.

| SMILES | IC50 (NCI-H226 cells) [nM] | CPA NCI-H226 Max Inh Ave (NCI-H226 cells) | IC50 (TEAD1) [nM] | TEAD1-Luc MCF7: Max Inhibition (TEAD1) | CPA H2052 Max Inh Ave (H2052 cells) | IC50 (H2052 cells) [nM] |
| --- | --- | --- | --- | --- | --- | --- |
| C=CC(=O)N1CC[C@](C)(C#Cc2ccc(C(F)(F)F)cc2)C1 (single isomer, unassigned) [Example 60, 1-[(3R*)-3-methyl-3-{2-[4-(trifluoromethyl)phenyl]ethynyl}pyrrolidin-1-yl]prop-2-en-1-one] | ≤ 100 | A (A ≥ 75%) | 10 to 100 | A (A ≥ 75%) | A (A ≥ 75%) | ≤ 100 |
| C=CC(=O)N1CC[C@@](C)(C#Cc2ccc(C(F)(F)F)cc2)C1 (single isomer, unassigned) [Example 61, 1-[(3S*)-3-methyl-3-{2-[4-(trifluoromethyl)phenyl]ethynyl}pyrrolidin-1-yl]prop-2-en-1-one] | ≤ 100 | B (75% > B ≥ 50%) | 10 to 100 | A (A ≥ 75%) | A (A ≥ 75%) | ≤ 100 |
| C=CC(=O)N1CC[C@@H](C#Cc2ccc(C(F)(F)F)cc2)C1 (single isomer, unassigned) [Example 67, (S*)-1-(3-((4-(trifluoromethyl)phenyl)ethynyl)pyrrolidin-1-yl)prop-2-en-1-one] | ≤ 100 | A (A ≥ 75%) | ≤ 10 | A (A ≥ 75%) | A (A ≥ 75%) | ≤ 100 |
| C=CC(=O)N1CC(C/C=C\c2cc(C(F)(F)F)on2)C1 [Example 1, 1-{3-[(2Z)-3-[5-(trifluoromethyl)-1,2-oxazol-3-yl]prop-2-en-1-yl]azetidin-1-yl}prop-2-en-1-one] | 100 to 500 | B (75% > B ≥ 50%) | ≤ 10 | A (A ≥ 75%) | B (75% > B ≥ 50%) | ≤ 100 |
| C=CC(=O)N1CC(/C=C/c2ccc(C(F)(F)F)cn2)C1 [Example 11, 1-(3-(2-(5-(trifluoromethyl)pyridin-2-yl)vinyl)azetidin-1-yl)prop-2-en-1-one] | 100 to 500 | A (A ≥ 75%) | ≤ 10 | A (A ≥ 75%) | A (A ≥ 75%) | ≤ 100 |
| C=CC(=O)N1CC(/C=C/c2cnc(C(F)(F)F)s2)C1 [Example 13, 1-{3-[(E)-2-[2-(trifluoromethyl)-1,3-thiazol-5-yl]ethenyl]azetidin-1-yl}prop-2-en-1-one] | ≤ 100 | B (75% > B ≥ 50%) | ≤ 10 | A (A ≥ 75%) | B (75% > B ≥ 50%) | ≤ 100 |
| C=CC(=O)N1CC(C#N)(/C=C/c2cc(C(F)(F)F)on2)C1 [Example 34, 1-acryloyl-3-(2-(5-(trifluoromethyl)isoxazol-3-yl)vinyl)azetidine-3-carbonitrile] | 100 to 500 | A (A ≥ 75%) | 10 to 100 | A (A ≥ 75%) | A (A ≥ 75%) | ≤ 100 |
| C=CC(=O)N1CC(/C=C/c2ccc(C(F)(F)F)cc2)C(OC)C1 (stereo not drawn) [Example 36, 1-(3-methoxy-4-(4-(trifluoromethyl)styryl)pyrrolidin-1-yl)prop-2-en-1-one] | 100 to 500 | B (75% > B ≥ 50%) | 10 to 100 | A (A ≥ 75%) | B (75% > B ≥ 50%) | ≤ 100 |
| C#Cc1cc(/C=C/C2CN(C(=O)C=C)C2)ccc1C(F)(F)F [Example 45, (E)-1-(3-(3-ethynyl-4-(trifluoromethyl)styryl)azetidin-1-yl)prop-2-en-1-one] | 100 to 500 | B (75% > B ≥ 50%) | 10 to 100 | A (A ≥ 75%) | B (75% > B ≥ 50%) | 100 to 500 |
